From US20230321008A1, “INHIBITORS OF ACID SPHINGOMYELINASE FOR PREVENTING AND TREATING THE COVID-19 DISEASE” (priority 2020, published 2023)
“Also recorded” adds a separate entry of the source.

Assays:
severe COVID-19 = assay: Example 2: multicenter observational retrospective cohort study, FIASMA medication use at baseline and intubation or death in patients hospitalized for severe COVID-19; type: in vivo, human; conditions: vs no FIASMA medication
Description: We included all adults aged 18 years or over who have been hospitalized in these medical centers for severe COVID-19. COVID-19 was ascertained by a positive reverse-transcriptase-polymerase-chain-reaction (RT-PCR) test from analysis of nasopharyngeal or oropharyngeal swab specimens. Severe COVID-19 at admission was defined as having at least one of the following criteria: respiratory rate > 24 breaths/min or < 12 breaths/min, resting peripheral capillary oxygen saturation in ambient air < 90%, temperature > 40° C., systolic blood pressure < 100 mm Hg or high lactate levels. AP-HP clinical Data Warehouse initiatives ensure patient information and informed consent regarding the different approved studies through a transparency portal in accordance with European Regulation on data protection and authorization n°1980120 from National Commission for Information Technology and Civil Liberties (CNIL).
We used data from the AP-HP Health Data Warehouse (‘Entrepôt de Données de Santé (EDS)’). This warehouse contains all available clinical data on all inpatient visits for COVID-19 to any Greater Paris University hospital. The data included patient demographic characteristics, vital signs, laboratory test and RT-PCR test results, medication administration data, medication lists during current and past hospitalizations in AP-HP hospitals, current diagnoses, discharge disposition, and death certificates.
We obtained the following data for each patient at the time of the hospitalization: sex; age, which was categorized into 4 classes based on the OpenSAFELY study results (i.e. 18-50, 51-70, 71-80, 81+); hospital, which was categorized into 4 classes following the administrative clustering of AP-HP hospitals in Paris and its suburbs based on their geographical location (i.e., AP-HP Centre - Paris University, Henri Mondor University Hospitals and at home hospitalization; AP-HP Nord and Hôpitaux Universitaires Paris Seine-Saint-Denis; AP-HP Paris Saclay University; and AP-HP Sorbonne University); obesity, which was defined as having a body mass index higher than 30 kg/m^2 or an International Statistical Classification of Diseases and Related Health Problems (ICD-10) diagnosis code for obesity (E66.0, E66.1, E66.2, E66.8, E66.9); self-reported current smoking status; and any medication prescribed according to compassionate use or as part of a clinical trial (e.g. hydroxychloroquine, azithromycin, remdesivir, tocilizumab, sarilumab, or dexamethasone). To take into account possible confounding by indication bias for FIASMA medication, we recorded whether patients had any current diagnosis, based on ICD-10 diagnosis codes, for neoplasms and diseases of the blood (C00-D89); mental disorders (F01-F99); diseases of the nervous system (G00-G99); cardiovascular disorders (I00-I99); respiratory disorders (J00-J99); digestive disorders (K00-K95); dermatological disorders (L00-L99); diseases of the musculoskeletal system (M00-M99); diseases of the genitourinary system (N00-N99); endocrine disorders (E00-E89); and eye-ear-nose-throat disorders (H00-H95).
All medical notes and prescriptions are computerized in Greater Paris University hospitals. Medications including their dosage, frequency, date, and mode of administration were identified from medication administration data or scanned handwritten medical prescriptions, through two deep learning models based on BERT contextual embeddings, one for the medications and another for their mode of administration. The model was trained on the APmed corpus, a previously annotated dataset for this task. Extracted medications names were then normalized to the Anatomical Therapeutic Chemical (ATC) terminology using approximate string matching.
FIASMA medication use was defined as receiving at least one FIASMA medication at study baseline, i.e. within the first 24 hours of hospital admission, and before the end of the index hospitalization, intubation or death.

[1] = target: T1, acid sphingomyelinase (ASM) (Homo sapiens, UniProt P17405); conditions: cited from earlier work
T1 sequence (P17405 47-631): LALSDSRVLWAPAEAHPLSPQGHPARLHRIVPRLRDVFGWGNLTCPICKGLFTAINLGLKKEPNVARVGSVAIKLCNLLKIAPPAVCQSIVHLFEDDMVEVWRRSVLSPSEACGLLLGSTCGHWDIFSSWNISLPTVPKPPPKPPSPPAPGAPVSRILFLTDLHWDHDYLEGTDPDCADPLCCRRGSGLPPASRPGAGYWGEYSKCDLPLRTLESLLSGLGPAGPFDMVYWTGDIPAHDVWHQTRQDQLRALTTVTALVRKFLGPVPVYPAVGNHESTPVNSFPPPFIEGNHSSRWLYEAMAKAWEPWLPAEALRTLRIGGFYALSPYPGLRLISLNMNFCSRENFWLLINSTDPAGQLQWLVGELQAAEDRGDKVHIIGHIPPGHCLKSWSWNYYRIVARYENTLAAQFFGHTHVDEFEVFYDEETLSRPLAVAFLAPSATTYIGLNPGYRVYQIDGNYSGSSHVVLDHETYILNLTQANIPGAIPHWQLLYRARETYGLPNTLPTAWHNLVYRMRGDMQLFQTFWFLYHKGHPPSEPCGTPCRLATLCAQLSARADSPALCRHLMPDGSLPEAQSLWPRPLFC

Sigma-1 receptors (S1R) = Sigma-1 receptors (S1R) (Homo sapiens, UniProt Q99720); conditions: cited from earlier work
Sequence of Sigma-1 receptors (S1R) (Q99720 whole entry): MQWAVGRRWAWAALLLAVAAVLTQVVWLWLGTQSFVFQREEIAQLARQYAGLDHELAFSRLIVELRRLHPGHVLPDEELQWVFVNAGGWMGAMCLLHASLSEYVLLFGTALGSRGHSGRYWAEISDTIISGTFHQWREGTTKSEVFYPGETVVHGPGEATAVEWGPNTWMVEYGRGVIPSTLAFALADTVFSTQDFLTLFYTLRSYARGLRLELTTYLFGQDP

glia activation = conditions: dependent on glia activation; cited from earlier work
SARS-CoV-2 [2] = conditions: in vitro; cited from earlier work
[3] = tested on: ceramide-enriched membrane domains; conditions: in vitro; cited from earlier work
SARS-CoV-2 [4] = conditions: cited from earlier work

Structure (SMILES): CCCCc1oc2ccccc2c1C(=O)c1cc(I)c(OCCN(CC)CC)c(I)c1 [Amiodarone, amiodarone]
- Association of use at baseline with risk of intubation or death (in words) (severe COVID-19): effective preventive and curative treatments for reducing risk of death or intubation

Structure (SMILES): O=C1CCc2ccc(OCCCCN3CCN(c4cccc(Cl)c4Cl)CC3)cc2N1 [Aripiprazole, aripiprazole]
- In vitro inhibition of acid sphingomyelinase (in words) [1]: in vitro inhibit acid sphingomyelinase with varying degrees
- Association of use at baseline with risk of intubation or death (in words) (severe COVID-19): effective preventive and curative treatments for reducing risk of death or intubation
- Affinity for Sigma-1 receptors (in words) (Sigma-1 receptors (S1R)): low or no affinity for S1R

Structure (SMILES): CN(C)CCCN1c2ccccc2Sc2ccc(Cl)cc21 [Chlorpromazine, chlorpromazine]
- In vitro inhibition of acid sphingomyelinase (in words) [1]: in vitro inhibit acid sphingomyelinase with varying degrees
- Association of use at baseline with risk of intubation or death (in words) (severe COVID-19): effective preventive and curative treatments for reducing risk of death or intubation
- Anti-inflammatory effect (in words) (glia activation): anti-inflammatory effect was observed
- Affinity for Sigma-1 receptors (in words) (Sigma-1 receptors (S1R)): low or no affinity for S1R

Structure (SMILES): Clc1ccc2c(c1)CCc1cccnc1C2=C1CCNCC1 [Desloratadine, desloratadine]
- Association of use at baseline with risk of intubation or death (in words) (severe COVID-19): effective preventive and curative treatments for reducing risk of death or intubation

Structure (SMILES): CNCC[C@H](Oc1cccc2ccccc12)c1cccs1 [Duloxetine, duloxetine]
- In vitro inhibition of acid sphingomyelinase (in words) [1]: in vitro inhibit acid sphingomyelinase with varying degrees
- Affinity for Sigma-1 receptors (in words) (Sigma-1 receptors (S1R)): low or no affinity for S1R

Structure (SMILES): CN(C)C(=O)C(CCN1CCC(O)(c2ccc(Cl)cc2)CC1)(c1ccccc1)c1ccccc1 [Loperamide, loperamide]
- In vitro inhibition of acid sphingomyelinase (in words) [1]: in vitro inhibit acid sphingomyelinase with varying degrees
- Association of use at baseline with risk of intubation or death (in words) (severe COVID-19): effective preventive and curative treatments for reducing risk of death or intubation

Structure (SMILES): Fc1ccc([C@@H]2CCNC[C@H]2COc2ccc3c(c2)OCO3)cc1 [Paroxetine, paroxetine]
- In vitro inhibition of acid sphingomyelinase (in words) [1]: in vitro inhibit acid sphingomyelinase with varying degrees
- Inhibition of viral replication (in words) (SARS-CoV-2 [2]): inhibition of viral replication was not observed
- Affinity for Sigma-1 receptors (in words) (Sigma-1 receptors (S1R)): low or no affinity for S1R

Structure (SMILES): CN[C@H]1CC[C@@H](c2ccc(Cl)c(Cl)c2)c2ccccc21 [Sertraline, sertraline]
- In vitro inhibition of acid sphingomyelinase (in words) [1]: inhibited ASM; also recorded: in vitro inhibit acid sphingomyelinase with varying degrees
- Formation of ceramide-enriched membrane domains (in words) [3]: inhibited ASM and the formation of ceramide-enriched membrane domains
- Affinity for Sigma-1 receptors (in words) (Sigma-1 receptors (S1R)): low or no affinity for S1R
- Infection of Vero cells with SARS-CoV-2 (in words) (SARS-CoV-2 [4]): prevented Vero cells from being infected with SARS-CoV-2

Structure (SMILES): CNCCCN1c2ccccc2CCc2ccccc21 [desipramine]
- In vitro inhibition of acid sphingomyelinase (in words) [1]: inhibited ASM; also recorded: in vitro inhibit acid sphingomyelinase with varying degrees
- Formation of ceramide-enriched membrane domains (in words) [3]: inhibited ASM and the formation of ceramide-enriched membrane domains
- Infection of Vero cells with SARS-CoV-2 (in words) (SARS-CoV-2 [4]): prevented Vero cells from being infected with SARS-CoV-2

Structure (SMILES): O=C(CCCN1CCC(O)(c2ccc(Cl)cc2)CC1)c1ccc(F)cc1 [haloperidol]
- Anti-inflammatory effect (in words) (glia activation): anti-inflammatory effect was observed

Structure (SMILES): CN(C)CCCN1c2ccccc2CCc2ccccc21 [imipramine]
- In vitro inhibition of acid sphingomyelinase (in words) [1]: inhibited ASM; also recorded: in vitro inhibit acid sphingomyelinase with varying degrees
- Formation of ceramide-enriched membrane domains (in words) [3]: inhibited ASM and the formation of ceramide-enriched membrane domains
- Infection of Vero cells with SARS-CoV-2 (in words) (SARS-CoV-2 [4]): prevented Vero cells from being infected with SARS-CoV-2

Structure (SMILES): CNCCCC12CCC(c3ccccc31)c1ccccc12 [maprotiline]
- In vitro inhibition of acid sphingomyelinase (in words) [1]: inhibited ASM; also recorded: in vitro inhibit acid sphingomyelinase with varying degrees
- Formation of ceramide-enriched membrane domains (in words) [3]: inhibited ASM and the formation of ceramide-enriched membrane domains
- Infection of Vero cells with SARS-CoV-2 (in words) (SARS-CoV-2 [4]): prevented Vero cells from being infected with SARS-CoV-2

Structure (SMILES): CNCCCC1c2ccccc2C=Cc2ccccc21 [protriptyline]
- In vitro inhibition of acid sphingomyelinase (in words) [1]: in vitro inhibit acid sphingomyelinase with varying degrees

Structure (SMILES): CCN(CC)CCCC(C)Nc1c2ccc(Cl)cc2nc2ccc(OC)cc12 (stereo not shown) [quinacrine]
- In vitro inhibition of acid sphingomyelinase (in words) [1]: in vitro inhibit acid sphingomyelinase with varying degrees

Structure (SMILES): Cc1nc2n(c(=O)c1CCN1CCC(c3noc4cc(F)ccc34)CC1)CCCC2 [risperidone]
- Anti-inflammatory effect (in words) (glia activation): anti-inflammatory effect was observed

Structure (SMILES): C[C@@H]1CC[C@@]2(NC1)O[C@H]1C[C@H]3[C@@H]4CC=C5C[C@@H](O)CC[C@]5(C)[C@H]4CC[C@]3(C)[C@H]1[C@@H]2C [solasodine]
- In vitro inhibition of acid sphingomyelinase (in words) [1]: in vitro inhibit acid sphingomyelinase with varying degrees

Structure (SMILES): CCCCCCCCNC(C)C(O)c1ccc(SC(C)C)cc1 (stereo not shown) [suloctidil]
- In vitro inhibition of acid sphingomyelinase (in words) [1]: in vitro inhibit acid sphingomyelinase with varying degrees

Structure (SMILES): CC/C(=C(\c1ccccc1)c1ccc(OCCN(C)C)cc1)c1ccccc1 [tamoxifen]
- In vitro inhibition of acid sphingomyelinase (in words) [1]: in vitro inhibit acid sphingomyelinase with varying degrees

Structure (SMILES): CC(C)(C)c1ccc(C(O)CCCN2CCC(C(O)(c3ccccc3)c3ccccc3)CC2)cc1 (stereo not shown) [terfenadine]
- In vitro inhibition of acid sphingomyelinase (in words) [1]: in vitro inhibit acid sphingomyelinase with varying degrees

Structure (SMILES): C[C@H]1CC[C@]2(NC1)O[C@H]1C[C@H]3[C@@H]4CC[C@H]5C[C@@H](O)CC[C@]5(C)[C@H]4CC[C@]3(C)[C@H]1[C@@H]2C [tomatidine]
- In vitro inhibition of acid sphingomyelinase (in words) [1]: in vitro inhibit acid sphingomyelinase with varying degrees

Structure (SMILES): CC(CN(C)C)CN1c2ccccc2CCc2ccccc21 (stereo not shown) [trimipramine]
- In vitro inhibition of acid sphingomyelinase (in words) [1]: in vitro inhibit acid sphingomyelinase with varying degrees

Structure (SMILES): COc1ccc(C(CN(C)C)C2(O)CCCCC2)cc1 (stereo not shown) [venlafaxine]
- In vitro inhibition of acid sphingomyelinase (in words) [1]: there are discrepancies whether citalopram, venlafaxine and mirtazapine do have in vitro FIASMA effect
